Molecular target: T1, human Werner helicase (Uniprot Q14191, amino acids 517-1235 with L1074F point mutation), WRN-BV08 (Homo sapiens, UniProt Q14191, L1074F)
T1 construct: Uniprot Q14191, amino acids 517-1235 with L1074F point mutation; TEV cleavable 8xHis tag (C, cleaved yes); made in house; host or cells: Sf9 insect cells (baculovirus, pFastBac)
Experiment: WRN (BV08) ADP-Glo Assay
Format: biochemical

T1 sequence (Q14191 517-1235 L1074F): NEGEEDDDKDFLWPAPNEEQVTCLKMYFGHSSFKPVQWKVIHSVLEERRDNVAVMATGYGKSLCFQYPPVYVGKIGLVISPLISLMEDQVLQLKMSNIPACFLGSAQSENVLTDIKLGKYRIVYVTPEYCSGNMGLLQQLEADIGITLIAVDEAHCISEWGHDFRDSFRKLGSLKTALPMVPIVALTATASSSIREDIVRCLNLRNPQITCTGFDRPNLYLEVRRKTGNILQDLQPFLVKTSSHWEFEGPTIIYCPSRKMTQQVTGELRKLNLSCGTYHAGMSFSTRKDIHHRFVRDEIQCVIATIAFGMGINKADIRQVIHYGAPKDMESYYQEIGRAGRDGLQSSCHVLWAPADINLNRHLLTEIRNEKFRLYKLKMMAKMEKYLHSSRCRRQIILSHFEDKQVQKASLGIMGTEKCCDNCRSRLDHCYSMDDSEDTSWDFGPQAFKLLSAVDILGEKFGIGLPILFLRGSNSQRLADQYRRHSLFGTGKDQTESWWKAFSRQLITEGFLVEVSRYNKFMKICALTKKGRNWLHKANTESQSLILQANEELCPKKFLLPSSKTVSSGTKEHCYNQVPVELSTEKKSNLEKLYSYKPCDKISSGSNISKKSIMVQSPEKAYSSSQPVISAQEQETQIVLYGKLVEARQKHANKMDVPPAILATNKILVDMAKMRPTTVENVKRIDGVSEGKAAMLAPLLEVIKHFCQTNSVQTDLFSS

SMILES: CCc1c(N2CCN(C(=O)c3nnc(C)s3)CC2)c(=O)n2nc(C3=CCOCC3)nc2n1CC(=O)Nc1ccc(C(F)(F)F)cc1Cl [Compound I-41, N-[2-chloro-4-(trifluoromethyl)phenyl]-2-[2-(3,6-dihydro-2H-pyran-4-yl)-5-ethyl-6-[4-(5-methyl-1,3,4-thiadiazole-2-carbonyl)piperazin-1-yl]-7-oxo-4H,7H-[1,2,4]triazolo[1,5-a]pyrimidin-4-yl]acetamide]
- IC50: 5 to 50 nM

SMILES: CCc1c(N2CCN(C(C)=O)CC2)c(=O)n2nc(-c3cnn(CC(C)(C)O)c3)nc2n1CC(=O)Nc1ccc(C(F)(F)F)cc1Cl [Compound I-55, 2-[6-(4-acetylpiperazin-1-yl)-5-ethyl-2-[1-(2-hydroxy-2-methylpropyl)-1H-pyrazol-4-yl]-7-oxo-4H,7H-[1,2,4]triazolo[1,5-a]pyrimidin-4-yl]-N-[2-chloro-4-(trifluoromethyl)phenyl]acetamide]
- IC50: 5 to 50 nM

SMILES: CCc1c(N2CCN(C(=O)c3ccnc(OC)c3O)CC2)c(=O)n2nc(-c3ccnc(OC)c3)nc2n1CC(=O)Nc1ccc(C(F)(F)F)cc1Cl [Compound I-80, N-[2-chloro-4-(trifluoromethyl)phenyl]-2-{5-ethyl-6-[4-(3-hydroxy-2-methoxypyridine-4-carbonyl)piperazin-1-yl]-2-(2-methoxypyridin-4-yl)-7-oxo-4H,7H-[1,2,4]triazolo[1,5-a]pyrimidin-4-yl}acetamide]
- IC50: 5 to 50 nM

SMILES: CCc1c(N2CCN(C(=O)c3nn(C)cc3O)CC2)c(=O)n2nc(C3=CCOCC3)nc2n1CC(=O)Nc1ccc(C(F)(F)F)cc1Cl [Compound I-12, N-[2-chloro-4-(trifluoromethyl)phenyl]-2-[2-(3,6-dihydro-2H-pyran-4-yl)-5-ethyl-6-[4-(4-hydroxy-1-methyl-1H-pyrazole-3-carbonyl)piperazin-1-yl]-7-oxo-4H,7H-[1,2,4]triazolo[1,5-a]pyrimidin-4-yl]acetamide]
- IC50: 5 to 50 nM

SMILES: CCc1c(N2CCN(C(=O)c3cnn(C)c3)CC2)c(=O)n2nc(-c3cnn(CC(C)(C)O)c3)nc2n1CC(=O)Nc1ccc(C(F)(F)F)cc1Cl [Compound I-56, N-[2-chloro-4-(trifluoromethyl)phenyl]-2-{5-ethyl-2-[1-(2-hydroxy-2-methylpropyl)-1H-pyrazol-4-yl]-6-[4-(1-methyl-1H-pyrazole-4-carbonyl)piperazin-1-yl]-7-oxo-4H,7H-[1,2,4]triazolo[1,5-a]pyrimidin-4-yl}acetamide]
- IC50: 5 to 50 nM

SMILES: CCc1c(N2CCN(C(=O)c3cnc(C)o3)CC2)c(=O)n2nc(-c3ccnc(OC)c3)nc2n1CC(=O)Nc1ccc(C(F)(F)F)cc1Cl [Compound I-67, N-[2-chloro-4-(trifluoromethyl)phenyl]-2-[5-ethyl-2-(2-methoxypyridin-4-yl)-6-[4-(2-methyl-1,3-oxazole-5-carbonyl)piperazin-1-yl]-7-oxo-4H,7H-[1,2,4]triazolo[1,5-a]pyrimidin-4-yl]acetamide]
- IC50: 5 to 50 nM

SMILES: CCc1c(N2CCN(C(=O)c3c(O)cccc3F)CC2)c(=O)n2nc(C3=CCOCC3)nc2n1CC(=O)Nc1ccc(C(F)(F)F)cc1Cl [Compound I-1, N-[2-chloro-4-(trifluoromethyl)phenyl]-2-[2-(3,6-dihydro-2H-pyran-4-yl)-5-ethyl-6-[4-(2-fluoro-6-hydroxybenzoyl)piperazin-1-yl]-7-oxo-4H,7H-[1,2,4]triazolo[1,5-a]pyrimidin-4-yl]acetamide]
- IC50: 5 to 50 nM

SMILES: CCc1c(N2CCN(C(=O)c3ncc4c(c3O)OCC4)CC2)c(=O)n2nc(-c3ccnc(OC)c3)nc2n1CC(=O)Nc1ccc(C(F)(F)F)cc1Cl [Compound I-86, N-[2-chloro-4-(trifluoromethyl)phenyl]-2-[5-ethyl-6-(4-{7-hydroxy-2H,3H-furo[3,2-c]pyridine-6-carbonyl}piperazin-1-yl)-2-(2-methoxypyridin-4-yl)-7-oxo-4H,7H-[1,2,4]triazolo[1,5-a]pyrimidin-4-yl]acetamide]
- IC50: < 5 nM

SMILES: CCc1c(N2CCN(C(=O)C(C)(C)C#N)CC2)c(=O)n2nc(C3=CCOCC3)nc2n1CC(=O)Nc1ccc(C(F)(F)F)cc1Cl [Compound I-31, N-[2-chloro-4-(trifluoromethyl)phenyl]-2-{6-[4-(2-cyano-2,2-dimethylacetyl)piperazin-1-yl]-2-(3,6-dihydro-2H-pyran-4-yl)-5-ethyl-7-oxo-4H,7H-[1,2,4]triazolo[1,5-a]pyrimidin-4-yl}acetamide]
- IC50: 50 to 100 nM

SMILES: CCc1c(N2CCN(C(=O)c3ncc4c(c3O)CCO4)CC2)c(=O)n2nc(-c3ccnc(OC)c3)nc2n1CC(=O)Nc1ccc(C(F)(F)F)cc1Cl [Compound I-85, N-[2-chloro-4-(trifluoromethyl)phenyl]-2-[5-ethyl-6-(4-{4-hydroxy-2H,3H-furo[2,3-c]pyridine-5-carbonyl}piperazin-1-yl)-2-(2-methoxypyridin-4-yl)-7-oxo-4H,7H-[1,2,4]triazolo[1,5-a]pyrimidin-4-yl]acetamide]
- IC50: < 5 nM

SMILES: CCc1c(N2CCN(C(=O)c3noc(C)n3)CC2)c(=O)n2nc(-c3ccnc(OC)c3)nc2n1CC(=O)Nc1ccc(C(F)(F)F)cc1Cl [Compound I-78, N-[2-chloro-4-(trifluoromethyl)phenyl]-2-[5-ethyl-2-(2-methoxypyridin-4-yl)-6-[4-(5-methyl-1,2,4-oxadiazole-3-carbonyl)piperazin-1-yl]-7-oxo-4H,7H-[1,2,4]triazolo[1,5-a]pyrimidin-4-yl]acetamide]
- IC50: 5 to 50 nM

SMILES: CCc1c(N2CCN(C(=O)c3ncnc(C)c3O)CC2)c(=O)n2nc(-c3ccc(OC)nc3)nc2n1CC(=O)Nc1ccc(C(F)(F)F)cc1Cl [Compound I-22, N-[2-chloro-4-(trifluoromethyl)phenyl]-2-{5-ethyl-6-[4-(5-hydroxy-6-methylpyrimidine-4-carbonyl)piperazin-1-yl]-2-(6-methoxypyridin-3-yl)-7-oxo-4H,7H-[1,2,4]triazolo[1,5-a]pyrimidin-4-yl}acetamide]
- IC50: 5 to 50 nM

SMILES: CCc1c(N2CCN(C(=O)CC#N)CC2)c(=O)n2nc(C3=CCOCC3)nc2n1CC(=O)Nc1ccc(C(F)(F)F)cc1Cl [Compound I-25, N-[2-chloro-4-(trifluoromethyl)phenyl]-2-{6-[4-(2-cyanoacetyl)piperazin-1-yl]-2-(3,6-dihydro-2H-pyran-4-yl)-5-ethyl-7-oxo-4H,7H-[1,2,4]triazolo[1,5-a]pyrimidin-4-yl}acetamide]
- IC50: 5 to 50 nM

SMILES: CCc1c(N2CCN(C(=O)c3ccnc(C)c3O)CC2)c(=O)n2nc(C3=CCOCC3)nc2n1CC(=O)Nc1ccc(C(F)(F)F)cc1Cl [Compound I-5, N-[2-chloro-4-(trifluoromethyl)phenyl]-2-[2-(3,6-dihydro-2H-pyran-4-yl)-5-ethyl-6-[4-(3-hydroxy-2-methylpyridine-4-carbonyl)piperazin-1-yl]-7-oxo-4H,7H-[1,2,4]triazolo[1,5-a]pyrimidin-4-yl]acetamide]
- IC50: 5 to 50 nM

SMILES: CCc1c(N2CCN(C(=O)c3cnc(C)cc3O)CC2)c(=O)n2nc(C3=CCOCC3)nc2n1CC(=O)Nc1ccc(C(F)(F)F)cc1Cl [Compound I-2, N-[2-chloro-4-(trifluoromethyl)phenyl]-2-[2-(3,6-dihydro-2H-pyran-4-yl)-5-ethyl-6-[4-(4-hydroxy-6-methylpyridine-3-carbonyl)piperazin-1-yl]-7-oxo-4H,7H-[1,2,4]triazolo[1,5-a]pyrimidin-4-yl]acetamide]
- IC50: 5 to 50 nM

SMILES: CCc1c(N2CCN(C(=O)c3nsnc3O)CC2)c(=O)n2nc(C3=CCOCC3)nc2n1CC(=O)Nc1ccc(C(F)(F)F)cc1Cl [Compound I-27, N-[2-chloro-4-(trifluoromethyl)phenyl]-2-[2-(3,6-dihydro-2H-pyran-4-yl)-5-ethyl-6-[4-(4-hydroxy-1,2,5-thiadiazole-3-carbonyl)piperazin-1-yl]-7-oxo-4H,7H-[1,2,4]triazolo[1,5-a]pyrimidin-4-yl]acetamide]
- IC50: 5 to 50 nM

SMILES: CCc1c(N2CCN(C(=O)c3ccnn3C)CC2)c(=O)n2nc(-c3ccnc(OC)c3)nc2n1CC(=O)Nc1ccc(C(F)(F)F)cc1Cl [Compound I-66, N-[2-chloro-4-(trifluoromethyl)phenyl]-2-[5-ethyl-2-(2-methoxypyridin-4-yl)-6-[4-(1-methyl-1H-pyrazole-5-carbonyl)piperazin-1-yl]-7-oxo-4H,7H-[1,2,4]triazolo[1,5-a]pyrimidin-4-yl]acetamide]
- IC50: 5 to 50 nM

SMILES: CCc1c(N2CCN(C(=O)c3sccc3O)CC2)c(=O)n2nc(C3=CCOCC3)nc2n1CC(=O)Nc1ccc(C(F)(F)F)cc1Cl [Compound I-6, N-[2-chloro-4-(trifluoromethyl)phenyl]-2-[2-(3,6-dihydro-2H-pyran-4-yl)-5-ethyl-6-[4-(3-hydroxythiophene-2-carbonyl)piperazin-1-yl]-7-oxo-4H,7H-[1,2,4]triazolo[1,5-a]pyrimidin-4-yl]acetamide]
- IC50: 5 to 50 nM

SMILES: CCc1c(N2CCN(C(=O)c3c(O)cncc3F)CC2)c(=O)n2nc(C3=CCOCC3)nc2n1CC(=O)Nc1ccc(C(F)(F)F)cc1Cl [Compound I-9, N-[2-chloro-4-(trifluoromethyl)phenyl]-2-[2-(3,6-dihydro-2H-pyran-4-yl)-5-ethyl-6-[4-(3-fluoro-5-hydroxypyridine-4-carbonyl)piperazin-1-yl]-7-oxo-4H,7H-[1,2,4]triazolo[1,5-a]pyrimidin-4-yl]acetamide]
- IC50: 5 to 50 nM

SMILES: CCc1c(N2CCN(C(=O)c3cnn(C)c3)CC2)c(=O)n2nc(-c3cc(OC)ncc3F)nc2n1CC(=O)Nc1ccc(C(F)(F)F)cc1Cl [Compound I-72, N-[2-chloro-4-(trifluoromethyl)phenyl]-2-[5-ethyl-2-(5-fluoro-2-methoxypyridin-4-yl)-6-[4-(1-methyl-1H-pyrazole-4-carbonyl)piperazin-1-yl]-7-oxo-4H,7H-[1,2,4]triazolo[1,5-a]pyrimidin-4-yl]acetamide]
- IC50: 5 to 50 nM

SMILES: CCc1c(N2CCN(C(=O)c3sc(C(F)(F)F)cc3O)CC2)c(=O)n2nc(C3=CCOCC3)nc2n1CC(=O)Nc1ccc(C(F)(F)F)cc1Cl [Compound I-7, N-[2-chloro-4-(trifluoromethyl)phenyl]-2-[2-(3,6-dihydro-2H-pyran-4-yl)-5-ethyl-6-{4-[3-hydroxy-5-(trifluoromethyl)thiophene-2-carbonyl]piperazin-1-yl}-7-oxo-4H,7H-[1,2,4]triazolo[1,5-a]pyrimidin-4-yl]acetamide]
- IC50: 5 to 50 nM

— patent US20260356840A1, “[1,2,4]TRIAZOLO[1,5-A]PYRIMIDINONE WRN INHIBITORS” (Nimbus Wadjet, Inc., priority 2023, published 2026)
